# According to ChEMBL document CHEMBL1201862, “PubChem BioAssay data set” (2004):
# Calls of active or inactive are those of the source.
# Legend:
# [1] = microbe, parasite or virus in culture; assay type: functional; details: Mycobacterium tuberculosis
# [2] = HEp-2 cell cytotoxicity, dose response, cytotoxicity control for RSV inhibitor project, HTS (AID 2410); assay type: functional; details: human respiratory syncytial virus
# [3] = C. albicans growth with fluconazole, confirmation, fluorescence, retest (AID 2467); assay type: functional, cell-based
# [4] = NIH-3T3 fibroblast cytotoxicity, dose response, cytotoxicity control, cell-based, fluorescence, Alamar Blue, secondary assay (AID 2327); assay type: functional;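 note: NIH-3T3 mouse fibroblasts cultured with fluconazole at 8 µg/mL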
# [5] = target: FAD-linked sulfhydryl oxidase ALR (Homo sapiens, UniProt P55789); experiment: inhibitors of human ALR sulfhydryl oxidase, dose response, biochemical, H2O2 detection, luminescence, cherry-pick (AID 493248)
# [6] = target: Cytochrome P450 2C9 (Homo sapiens, UniProt P11712)
# [7] = target: Cytochrome P450 2C19 (Homo sapiens, UniProt P33261); experiment: Cytochrome panel assay with activity outcomes. Panel member name: p450-cyp2c19 Compounds with AC50 equal or less than 10 uM are considered active; assay type: functional; details: read-out: AC50
# [8] = target: T1, Heat shock factor protein 1 (Mus musculus, UniProt P38532); experiment: inhibition of MG132-induced HSE-luciferase signal, confirmation, cell-based, NIH3T3, luminescence, dose retest (AID 2382); assay type: functional;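 note: NIH3T3 fibroblasts with HSF1-driven luciferase reporter stressed by proteasome inhibitor MG132; luminescence from HSF1-driven luciferase expression after 8 hours of MG132 stress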
# T1 sequence (P38532 whole entry): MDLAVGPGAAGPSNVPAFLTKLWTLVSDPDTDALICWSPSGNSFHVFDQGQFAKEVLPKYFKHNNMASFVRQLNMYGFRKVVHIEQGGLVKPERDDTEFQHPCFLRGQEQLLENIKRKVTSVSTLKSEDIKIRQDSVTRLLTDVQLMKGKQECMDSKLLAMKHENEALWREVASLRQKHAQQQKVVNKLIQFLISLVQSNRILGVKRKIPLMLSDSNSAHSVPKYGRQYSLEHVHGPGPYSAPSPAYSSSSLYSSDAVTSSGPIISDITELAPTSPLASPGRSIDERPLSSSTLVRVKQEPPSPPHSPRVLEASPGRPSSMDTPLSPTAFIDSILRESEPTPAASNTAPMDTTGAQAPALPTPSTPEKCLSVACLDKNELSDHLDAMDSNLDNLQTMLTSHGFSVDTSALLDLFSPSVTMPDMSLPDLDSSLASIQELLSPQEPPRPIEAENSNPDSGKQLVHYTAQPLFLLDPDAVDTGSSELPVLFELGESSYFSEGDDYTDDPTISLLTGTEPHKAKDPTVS
# [9] = target: T2, Protein skinhead-1 (Caenorhabditis elegans, UniProt P34707); assay type: functional
# T2 sequence (P34707 whole entry): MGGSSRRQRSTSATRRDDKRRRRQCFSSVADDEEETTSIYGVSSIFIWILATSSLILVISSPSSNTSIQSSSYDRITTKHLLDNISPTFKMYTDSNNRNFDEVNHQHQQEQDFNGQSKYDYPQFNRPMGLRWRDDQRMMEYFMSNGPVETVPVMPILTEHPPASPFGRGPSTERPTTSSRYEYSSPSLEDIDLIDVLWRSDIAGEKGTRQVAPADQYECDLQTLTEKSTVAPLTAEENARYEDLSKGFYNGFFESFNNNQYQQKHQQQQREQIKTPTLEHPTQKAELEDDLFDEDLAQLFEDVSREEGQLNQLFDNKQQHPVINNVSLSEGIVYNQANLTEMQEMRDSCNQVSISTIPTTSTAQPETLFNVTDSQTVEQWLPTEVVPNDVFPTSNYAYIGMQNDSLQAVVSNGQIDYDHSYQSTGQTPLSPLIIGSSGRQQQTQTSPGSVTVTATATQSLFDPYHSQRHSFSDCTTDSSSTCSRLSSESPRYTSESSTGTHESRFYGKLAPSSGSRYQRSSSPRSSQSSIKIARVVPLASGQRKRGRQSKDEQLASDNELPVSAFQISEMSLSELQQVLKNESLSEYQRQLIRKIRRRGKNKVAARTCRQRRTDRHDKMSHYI
# [10] = target: T3, Streptokinase A (Streptococcus pyogenes serotype M1, UniProt P10520); experiment: S. pyogenes streptokinase expression inhibitors, potency, dose response, plasminogen activation absorbance, OD405 (AID 1914); assay type: functional, Streptococcus pyogenes M1 GAS;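 note: secreted streptokinase activity via plasminogen activation per viability signal from cell pellet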
# T3 sequence (P10520 whole entry): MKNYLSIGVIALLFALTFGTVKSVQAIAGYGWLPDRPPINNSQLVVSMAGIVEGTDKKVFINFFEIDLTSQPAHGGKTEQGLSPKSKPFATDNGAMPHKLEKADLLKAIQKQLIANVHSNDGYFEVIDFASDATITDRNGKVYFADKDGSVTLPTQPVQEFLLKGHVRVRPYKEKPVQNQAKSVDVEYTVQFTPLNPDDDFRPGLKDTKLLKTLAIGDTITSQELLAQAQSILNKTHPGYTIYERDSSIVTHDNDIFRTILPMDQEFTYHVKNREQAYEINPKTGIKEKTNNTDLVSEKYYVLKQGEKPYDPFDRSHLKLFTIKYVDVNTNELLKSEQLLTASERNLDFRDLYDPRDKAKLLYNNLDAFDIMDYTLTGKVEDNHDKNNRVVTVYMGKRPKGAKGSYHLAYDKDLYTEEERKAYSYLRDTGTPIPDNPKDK
# [11] = test system: Streptococcus; experiment: Group A Streptococcus viability loss, dose response, counter-screen for streptokinase expression inhibitor project, luminescence, BacTiterGlo (AID 1915); assay type: functional, organism-based;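 note: potency for reduction of bacterial viability or growth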
# [12] = test system: Streptococcus sp. 'group A'; experiment: growth inhibition of control SK(-) GAS strain, dose response, counter-screen for streptokinase expression inhibitor project, luminescence, kanamycin, BacTiterGlo, confirmation (AID 1900); assay type: functional, organism-based
# [13] = Luminescence Cell-Based Dose Retest to Confirm Inhibitors of Cancer Stem Cells. [Related pubchem assays (depositor defined):AID2717, AID2721]; assay type: functional; details: Homo sapiens
# Chain of FAD-linked sulfhydryl oxidase ALR (P55789 whole entry): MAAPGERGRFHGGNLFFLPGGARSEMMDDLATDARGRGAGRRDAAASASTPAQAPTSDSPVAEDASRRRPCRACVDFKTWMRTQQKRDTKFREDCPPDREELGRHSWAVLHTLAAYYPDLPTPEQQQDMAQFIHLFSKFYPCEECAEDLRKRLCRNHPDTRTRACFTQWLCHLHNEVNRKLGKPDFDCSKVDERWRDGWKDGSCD
# Chain of Cytochrome P450 2C9 (P11712 whole entry): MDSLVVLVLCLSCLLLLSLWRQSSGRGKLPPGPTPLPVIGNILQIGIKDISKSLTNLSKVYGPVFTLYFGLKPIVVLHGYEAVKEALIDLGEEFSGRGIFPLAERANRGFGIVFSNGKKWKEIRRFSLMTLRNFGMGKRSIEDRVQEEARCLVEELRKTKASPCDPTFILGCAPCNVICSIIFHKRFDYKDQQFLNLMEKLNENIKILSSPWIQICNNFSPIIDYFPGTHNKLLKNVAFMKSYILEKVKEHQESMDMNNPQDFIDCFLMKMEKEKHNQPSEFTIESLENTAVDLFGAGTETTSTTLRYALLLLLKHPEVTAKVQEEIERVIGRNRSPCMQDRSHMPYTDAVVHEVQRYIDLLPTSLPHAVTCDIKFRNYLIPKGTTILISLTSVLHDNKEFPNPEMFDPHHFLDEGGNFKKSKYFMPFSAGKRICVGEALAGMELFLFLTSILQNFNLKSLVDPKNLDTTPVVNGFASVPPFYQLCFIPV
# Chain of Cytochrome P450 2C19 (P33261 whole entry): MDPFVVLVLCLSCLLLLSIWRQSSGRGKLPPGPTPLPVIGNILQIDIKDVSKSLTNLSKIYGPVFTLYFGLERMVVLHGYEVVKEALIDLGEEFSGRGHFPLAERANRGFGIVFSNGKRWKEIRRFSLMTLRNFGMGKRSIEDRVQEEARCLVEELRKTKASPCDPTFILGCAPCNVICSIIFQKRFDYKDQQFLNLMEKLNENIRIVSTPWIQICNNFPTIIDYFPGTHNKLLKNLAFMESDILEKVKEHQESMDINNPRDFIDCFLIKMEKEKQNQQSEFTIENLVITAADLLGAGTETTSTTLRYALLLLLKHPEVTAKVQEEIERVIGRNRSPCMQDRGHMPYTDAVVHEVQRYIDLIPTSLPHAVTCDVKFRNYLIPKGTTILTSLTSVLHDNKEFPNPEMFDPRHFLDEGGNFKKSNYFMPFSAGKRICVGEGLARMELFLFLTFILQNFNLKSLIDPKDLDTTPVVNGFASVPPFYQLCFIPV
structure (smiles),measurement,setting,value
COc1ccc(C2=CC(c3c(C)nn(-c4ccccc4)c3Cl)n3nnnc3N2)cc1OC (stereo unspecified),CC50,[1],> 40 µM (active)
same,CC50,[2],24.1 µM (active)
Cc1nn(C)c(C(=O)Nc2cccc(Nc3ccccc3)c2)c1[N+](=O)[O-],CC50,[2],23.1 µM (active)
Cc1nc(NC(=O)c2c(-c3ccccc3)noc2C)sc1C(=O)N(C)C,EC50,[3],> 38 µM (not active)
same,EC50,[4],> 160 µM (inactive)
O=C1c2ccccc2C(=O)N1CCCCN(C(=O)c1ccc(Cl)s1)c1ccc(Cl)cc1,CC50,[2],24 µM (active)
Nc1ccc(N2CCN(C(=O)c3ccco3)CC2)cc1,AC50,[5],0.719 µM (active)
same,AC50,[6],10 µM (inconclusive)
same,AC50,[7],8.91 µM (inconclusive)
CCOC1OC(O)=C(Cl)/C1=N\c1cc(C)ccc1C (stereo unspecified),CC50,[2],29.2 µM (active)
COc1ccc(OC)c2c(C)cc(N3CCCN(C)CC3)nc12,AC50,[5],22 µM (active)
CCN(CC)C(=O)[C@H]1CC(CC(=O)NCC23C[C@H]4C[C@@H](C2)C[C@@H](C3)C4)C(=O)N2CCc3c([nH]c4ccccc34)[C@]12C (stereo partly specified),CC50,[1],30.8 µM (active)
O=C(Nc1cccc(F)c1)c1cc(-c2ccco2)nc2ccccc12,EC50,[8],> 195 µM (not active)
O=C(c1cc(-c2ccccc2)on1)N1CCc2ccccc2C1,IC50,[9],> 100 µM (inactive)
CCCc1cc(=O)n2nc(C)c(-c3ccc(Cl)cc3)c2[nH]1,CC50,[1],39.5 µM (active)
same,EC50,[10],> 150 µM (not active)
same,EC50,[11],11.3 µM (active)
same,EC50,[12],3.37 µM (active)
COc1ccc(CCNC(=O)c2ccc(N(C)S(=O)(=O)c3ccc(C)cc3)cc2)cc1,EC50,[8],> 195 µM (not active)
CCCc1nc(NCCO)c(C#N)c2c1CCCC2,CC50,[2],15.7 µM (active)
Brc1cccc(OCCSc2ncccn2)c1,IC50,[9],63.6 µM (inactive)
CCOc1ccccc1C(=O)N/N=C/c1ccoc1,EC50,[3],3.33 µM (active)
same,EC50,[4],138 µM (active)
CCn1cc(C(=O)OCC(=O)Nc2cccc(Cl)c2Cl)c(=O)c2ccc(C)nc21,EC50,[3],> 38 µM (not active)
same,EC50,[4],> 150 µM (inactive)
CC1=NN(C(N)=S)C(=O)C1N=Nc1ccc(C)c(Br)c1 (stereo unspecified),CC50,[1],> 40 µM (active)
Nc1cc(N)nc(SCc2cccc(F)c2)n1,EC50,[3],> 38 µM (not active)
same,EC50,[4],> 150 µM (inactive)
Sc1nnc(C2CCCCC2)n1/N=C/C(Cl)=C\c1ccccc1,AC50,[13],5.5 µM (active)
same,CC50,[2],15.2 µM (active)
CCCCCCCNC(=O)c1ccc(N2CCC3(CC2)OCCO3)c([N+](=O)[O-])c1,CC50,[1],> 40 µM (active)
